Earlier results as cited in PMC7180638, “Synthesis of Pyrrolidine Monocyclic Analogues of Pochonicine and Its Stereoisomers: Pursuit of Simplified Structures and Potent β-N-Acetylhexosaminidase Inhibition” (Molecules, 2020).
Where two headings read alike, the source gives them in different places.

Experiments:
[1] = molecular target: β-N Acetylhexosaminidase (Human placenta); conditions: ref [2]; cited from earlier work
[2] = molecular target: β-N-Acetylhexosaminidase (Jack bean); conditions: ref [2]; cited from earlier work
[3] = molecular target: T1, α-N-Acetylgalactosaminidase (Chicken liver) (Gallus gallus, UniProt Q90744); conditions: ref [2], cited from earlier work
T1 construct: purchased Sigma-Aldrich Chemical Co; host or cells: chicken liver
T1 sequence (Q90744 1-405): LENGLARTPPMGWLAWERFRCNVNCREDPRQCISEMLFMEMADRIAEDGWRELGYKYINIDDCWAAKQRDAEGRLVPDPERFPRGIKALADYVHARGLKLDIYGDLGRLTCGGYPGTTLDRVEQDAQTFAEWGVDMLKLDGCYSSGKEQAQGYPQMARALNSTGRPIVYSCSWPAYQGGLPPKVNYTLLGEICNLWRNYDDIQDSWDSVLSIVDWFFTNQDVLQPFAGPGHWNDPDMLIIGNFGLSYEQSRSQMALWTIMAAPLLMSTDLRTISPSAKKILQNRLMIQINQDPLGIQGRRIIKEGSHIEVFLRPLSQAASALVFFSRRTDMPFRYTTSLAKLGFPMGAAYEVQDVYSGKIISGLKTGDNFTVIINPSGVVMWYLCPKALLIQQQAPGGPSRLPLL

[4] = molecular target: β-N-Acetylhexosaminidase (HL60); conditions: ref [2]; cited from earlier work
[5] = molecular target: β-N-Acetylhexosaminidase (Bovine liver); conditions: ref [2]; cited from earlier work
[6] = molecular target: β-N-Acetylgalactosaminidase (HL60); conditions: ref [2]; cited from earlier work
[7] = molecular target: β-N Acetylhexosaminidase (A. oryzae); conditions: ref [2]; cited from earlier work

Q: With `CC(=O)NC[C@H]1[C@H](O)[C@H](O)[C@@H]2[C@H](O)C[C@@H](CO)N21` [Pochonicine (1), pochonicine] as the compound, how does the IC50 [1] read?
A: 12 nM

Q: And the IC50 [2]?
A: 1.6 nM

Q: What about the “Inhibition % at 1000 μM” value ([3]; 1000 μM) of the same compound?
A: 9.0%

Q: What about the IC50 ([3]; listed as pochonicine (1)) of the same compound?
A: did not exhibit any inhibition

Q: What about the IC50 [3] of the same compound?
A: NI (No Inhibition (less than 50% at 1000 μM))

Q: What about the IC50 [4] of the same compound?
A: 18 nM

Q: And the IC50 [5]?
A: 21 nM

Q: What about the IC50 [6] of the same compound?
A: 49 nM

Q: What about the IC50 [7] of the same compound?
A: 330 nM
